From patent publication US5420156A, “Pharmacologically active compound and use” (Burroughs Wellcome Co., priority 1989, dated 1995)

Experiments:
MAO-A [1] = experiment: In vitro inhibition of MAO-A in mitochondrial extracts of rat or human brain (double-label assay); assay type: biochemical
Method: (§1) MAO was assayed with [^3 H]serotonin (0.2 mM, 5G/mole) and [^14 C]β-phenethylamine (10 μM, 3 G/mole) as substrate in a double-label assay (White and Glassman, J. Neurochem, 29:987-97 (1977)). Under these conditions, serotonin is selectively metabolised by MAO-A and β-phenethylamine by MAO-B.

[2] = Acute oral toxicity, rats; assay type: in vivo; conditions: up to 1000 mg/kg., p.o.
[3] = Acute oral toxicity, mice; assay type: in vivo; conditions: up to 1000 mg/kg., p.o.
[4] = system: elevation of blood pressure by orally ingested tyramine; experiment: Response to orally ingested tyramine (elevation of blood pressure) in test mammals; assay type: in vivo; conditions: oral antidepressant doses prior to orally ingested tyramine
MAO-A [5] = experiment: Kinetic mechanism of MAO-A inhibition in vitro (substrate serotonin or tyramine varied); assay type: biochemical, rat or human
Method: as §1
For studies of the kinetic mechanism of inhibition, the above method was used except that a single substrate, serotonin or tyramine, was varied over a 10-fold concentration range that included the Km concentration. When tyramine was used as substrate, the extract was pretreated with deprenyl (1 μM) to inhibit all MAO-B activity. MAO-A activity was determined in the absence and presence of the compound under test at each substrate concentration in duplicate or triplicate assays.

MAO-B (liver) = experiment: In vivo inhibition of liver MAO-B (ex vivo assay after oral dosing); set-up: species or system rats; conditions: 5, 10, 20 mg/kg p.o.
Method: (§2) To determine MAO inhibition in brains and livers of rats pretreated with a reversible inhibitor, it was necessary to use an assay procedure that minimized dilution of the compound. Thus, high concentrations of tissue homogenates were incubated for very short periods of time. For brain assays, initial tissue was 3-fold diluted into each assay. Because of the very high MAO activity. Further dilution of liver homogenates was necessary in order to obtain reliable data. Substrate concentrations were not saturating, but were chosen relative to Km values for serotonin and β-phenethylamine in order to give an estimate of MAO-A and MAO-B, respectively. Brains from pretreated male Sprague-Dawley rats (sacrificed 3 hours after oral dosing with the test compound) were homogenized in a buffer consisting of 0.1 M potassium phosphate and 5% sucrose (pH 7.4) at a 1:1 tissue weight/buffer volume ratio, using a motorized Teflon/glass homogenizer. MAO-A and MAO-B were determined by incubating 100 μL of tissue homogenate with 50 μL of a double-label substrate mixture to give final concentrations of [^3 H]serotonin, 0.4 mM (5C/mole) and [^14 C]β-phenethylamine, 20 μM (3C/mole). For blank assays, 100 μL portions of homogeneous were pre-incubated for 15 min. at 37° C. with pargyline (4 mM) before substrate addition. Incubations with substrate present were at 37° C. for 30 sec. […]

MAO-B (brain) = experiment: In vivo inhibition of brain MAO-B (ex vivo assay after oral dosing); set-up: species or system male Sprague-Dawley rats; conditions: 5, 10, 20 mg/kg p.o.
Method: as §2

MAO-A (liver) = experiment: In vivo inhibition of liver MAO-A (ex vivo assay after oral dosing); set-up: species or system rats
Method: (§3) To determine MAO inhibition in brains and livers of rats pretreated with a reversible inhibitor, it was necessary to use an assay procedure that minimized dilution of the compound. Thus, high concentrations of tissue homogenates were incubated for very short periods of time. For brain assays, initial tissue was 3-fold diluted into each assay. […] Further dilution of liver homogenates was necessary in order to obtain reliable data. Substrate concentrations were not saturating, but were chosen relative to Km values for serotonin and β-phenethylamine in order to give an estimate of MAO-A and MAO-B, respectively. Brains from pretreated male Sprague-Dawley rats (sacrificed 3 hours after oral dosing with the test compound) were homogenized in a buffer consisting of 0.1 M potassium phosphate and 5% sucrose (pH 7.4) at a 1:1 tissue weight/buffer volume ratio, using a motorized Teflon/glass homogenizer. MAO-A and MAO-B were determined by incubating 100 μL of tissue homogenate with 50 μL of a double-label substrate mixture to give final concentrations of [^3 H]serotonin, 0.4 mM (5C/mole) and [^14 C]β-phenethylamine, 20 μM (3C/mole). For blank assays, 100 μL portions of homogeneous were pre-incubated for 15 min. at 37° C. with pargyline (4 mM) before substrate addition. Incubations with substrate present were at 37° C. for 30 sec. Assay mixtures were then acidified and products extracted as in the above in vitro method (White and Glassman, loc. cit.).
Liver tissue was homogenized in the above phosphate-sucrose buffer at a 1:5 tissue weight/buffer volume ratio. Portions (100 μL) of homogenate were incubated with 50 μL of the above double-label substrate mixture. Blank assays included the same volume of homogenate pre-incubated with 4 mM pargyline for 15 min. at 37° C. After addition of substrates, mixtures were incubated at 37° C. for 30 sec, acidified, and products extracted as above.

MAO-A (brain) = experiment: In vivo inhibition of brain MAO-A (ex vivo assay after oral dosing); set-up: species or system male Sprague-Dawley rats; conditions: for Percentage inhibition of MAO-A, Brain: 3 hours after dosing; for inhibition of brain MAO-A by the time of tyramine administration: single oral dose, 3 hours later (tyramine pressor study)
Method: as §3, with “([…])” for “(sacrificed 3 hours after oral dosing with the test compound)”

MAO-A [6] = experiment: Reversibility of binding to MAO-A by dialysis
monoamine oxidase (MAO) = conditions: background; cited from earlier work

CCc1cccc2c1S(=O)(=O)c1ccccc1O2 [Compound I, 1-Ethylphenoxathiin 10,10-dioxide]
inhibition of MAO-A (in words) (MAO-A [1]): potent selective inhibition of MAO-A | IC50 (MAO-A [1]; read-out: I50 (concentration producing 50% inhibition)): 35 nM | visible effects after acute doses [2]: No visible effects | visible effects after acute doses [3]: No visible effects | increase in response (elevation of blood pressure) to orally ingested tyramine [4]: No pharmacologically significant increase in response | type of inhibition vs. the substrate serotonin or tyramine (MAO-A [5]; substrate serotonin or tyramine): competitive | Ki (MAO-A [5]; vs. substrate serotonin): 10 nM | Ki (MAO-A [5]; vs. substrate tyramine, extract pretreated with deprenyl (1 μM)): 10 nM | inhibition of MAO-B, liver (MAO-B (liver)): no significant inhibition | inhibition of MAO-B, brain (MAO-B (brain)): no significant inhibition | Percentage inhibition of MAO-A, Liver (MAO-A (liver); 5 mg/kg p.o.): 32.8 ± 6.4% | Percentage inhibition of MAO-A, Liver (MAO-A (liver); 10 mg/kg p.o.): 61.8 ± 4.4% | Percentage inhibition of MAO-A, Liver (MAO-A (liver); 20 mg/kg p.o.): 78.9 ± 1.6% | Percentage inhibition of MAO-A, Brain (MAO-A (brain); 5 mg/kg p.o.): 18.5 ± 8.1% | Percentage inhibition of MAO-A, Brain (MAO-A (brain); 10 mg/kg p.o.): 65.2 ± 6.6% | Percentage inhibition of MAO-A, Brain (MAO-A (brain); 20 mg/kg p.o.): 82.4 ± 2.6% | time of peak inhibition of brain MAO-A (MAO-A (brain); oral dose of 20 mg/kg): 1 to 6 h | inhibition of brain MAO-A at 24 hours after dosing (MAO-A (brain); oral dose of 20 mg/kg, 24 hours): negligible | inhibition of brain MAO-A by the time of tyramine administration (MAO-A (brain)): approximately 80% | binding to MAO-A, removal from its complex by dialysis (MAO-A [6]): reversibly bound to MAO-A

Cc1cc(C(=O)NNCc2ccccc2)no1 [isocarboxazid]
type of MAO inhibition (monoamine oxidase (MAO)): non-selective, irreversible inhibitors

NNCCc1ccccc1 [pheneizine, reference compound]
type of MAO inhibition (monoamine oxidase (MAO)): non-selective, irreversible inhibitors | inhibition of liver MAO-A in tyramine pressor study (MAO-A (liver); single oral dose producing approximately 80% inhibition of brain MAO-A): ≥ 90% | inhibition of brain MAO-A by the time of tyramine administration (MAO-A (brain)): approximately 80%

N[C@@H]1C[C@H]1c1ccccc1 (relative stereo) [tranylcypromine]
type of MAO inhibition (monoamine oxidase (MAO)): non-selective, irreversible inhibitors
